Like-named read-outs stand apart in the source and are kept apart here.
Assays:
CCRF-CEM WT cells = assay: Antifolate growth inhibition assay (XTT), parental cells; format: cell-based; details: Homo sapiens, 72 h, read-out: IC50 growth inhibition
Method: (§1) Tissue Culture: The human T-cell lymphocytic leukemia lines CCRF-CEM and Molt-4 as well as their antifolate-resistant sublines CEM-MTX^R5P, CEM-MTX^R10, CEM-7OH MTX and Molt-4-7OH MTX were maintained in RPMI-1640 medium (GIBCO) containing 2.3 μM folic acid supplemented with 10% fetal bovine serum, 2 mM glutamine, 100 units/ml penicillin G and 100 μg/ml streptomycin sulfate (Biological Industries, Beth-Haemek, Israel). The MTX-resistant sublines MTX^R5P and MTX^R10 were established by exposure of parental CCRF-CEM cells to 6 cycles each of 24 hr pulse of 5 or 10 μM MTX, respectively (Sigma) as follows: after an initial 24 hr pulse exposure of parental CCRF-CEM cells to 5 or 10 μM MTX at 37° C., cells were washed once with drug-free growth medium, adjusted to 3×10^5 cells/ml and allowed to grow for 1-2 weeks. Thereafter, a maintenance treatment of 24 hr pulses of MTX was performed once a month. CEM-7OH MTX and Molt-4-7OH MTX were established and maintained as previously described [Fotoohi K, et al., Blood. 2004; 104:4194-4201].
(§2) Antifolate growth inhibition assay: Parental cells and their antifolate-resistant sublines as well as FPGS-transfected cells were first grown in antifolate-free growth medium for 5-7 cell doublings. Thereafter, cells were seeded in 96-well plates (3×10^4/well) in growth medium (100 μl/well) containing various concentrations of the different antifolates (e.g. MTX, ZD1694 and ZD9331). After 3 days of incubation at 37° C., viable cell numbers were determined using the Cell Proliferation Kit (XTT) (Biological Industries). Percent inhibition of cell growth was calculated relative to untreated controls. Results presented are means of at least three independent experiments.

CEM-MTX^R5P cells = assay: Antifolate growth inhibition assay (XTT), MTX-resistant subline; format: cell-based, human; details: for IC50: Homo sapiens, 72 h, read-out: IC50 growth inhibition
Method: as §1, §2

CEM-MTX^R10 cells = assay: as above; format: cell-based; details: Homo sapiens, 72 h, read-out: IC50 growth inhibition
Method: as §1, §2

RFC (SLC19A1) = molecular target: T1, RFC (SLC19A1) (Homo sapiens, UniProt P41440); assay: [^3H]MTX transport assay; format: cell-based; details: 2 μM [3H]MTX, 3 min, 37° C.
T1 construct: endogenous in cells; host or cells: CCRF-CEM parental cells and antifolate-resistant sublines (MTX^R5P, CEM/MTX^R10)
T1 sequence (P41440 1-591): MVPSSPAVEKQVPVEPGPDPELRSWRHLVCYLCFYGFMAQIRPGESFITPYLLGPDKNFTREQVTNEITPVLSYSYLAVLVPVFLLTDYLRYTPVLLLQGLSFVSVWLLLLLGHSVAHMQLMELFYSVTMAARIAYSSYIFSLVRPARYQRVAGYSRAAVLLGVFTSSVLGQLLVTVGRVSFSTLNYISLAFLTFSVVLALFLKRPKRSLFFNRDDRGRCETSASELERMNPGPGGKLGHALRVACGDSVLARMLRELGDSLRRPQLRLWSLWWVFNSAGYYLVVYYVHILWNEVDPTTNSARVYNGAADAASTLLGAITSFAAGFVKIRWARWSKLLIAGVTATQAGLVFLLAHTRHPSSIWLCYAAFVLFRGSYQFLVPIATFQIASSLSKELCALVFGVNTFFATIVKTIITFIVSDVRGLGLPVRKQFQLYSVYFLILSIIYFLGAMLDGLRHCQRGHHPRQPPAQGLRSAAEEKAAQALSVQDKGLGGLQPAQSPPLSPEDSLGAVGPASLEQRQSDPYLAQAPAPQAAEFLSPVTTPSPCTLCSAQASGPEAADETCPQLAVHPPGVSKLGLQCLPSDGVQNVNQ
Method: [^3H]MTX transport assay: [^3H]MTX influx rates were determined as previously described [Jansen Get al., J Biol Chem. 1990; 265:18272-18277]. Briefly, cells (2×10^7) were washed with ice-cold HBS (20 mM HEPES, 140 mM NaCl, 5 mM KCl, 2 mM MgCl2, and 5 mM glucose, at pH 7.4) and incubated at 37° C. for 3 min in HBS containing 2 μM [3′,5′,7-^3H]-Methotrexate (0.555 TBq/mmol; […]; Moravek Biochemicals, Brea, Calif.). Transport controls contained a 500-fold excess (1 mM) of unlabeled MTX. Transport was stopped by the addition of 10 ml of ice-cold HBS. Then, the cell suspension was centrifuged, washed with ice-cold HBS and suspended in water for scintillation counting.

[1] = tested on: MTX^R10 cells overexpressing normal FPGS (pcDNA3/hFPGS transfectant); assay: Antifolate cytotoxicity in FPGS-transfected cells; format: cell-based, human; details: MTX^R10 cells transfected with normal FPGS, compared with parental cells
Method: as §2
Expression Vectors: pcDNA3/hFPGS harboring the full-length human FPGS cDNA was provided. […]
Stable Transfections with hFPGS Expression Constructs: Exponentially growing cells (i.e. CCRF-CEM and)CEM-MTX^R10) were harvested by centrifugation and stably transfected by electroporation (1000 μF, 234V) with 10 μg of the vectors pcDNA3.1, pIRES2-EGFP, pcDNA3/hFPGS or pIRES/FPGSΔexon10. […] Stable transfectants obtained after 4 weeks of G-418 selection were analyzed for FPGS mRNA levels by Northern blots as detailed below and used for further analyses.

[2] = CCRF-CEM WT, 3 days incubation, XTT
[3] = CEM-MTX^R5P, 3 days incubation, XTT
[4] = CEM-MTX^R10, 3 days incubation, XTT
[5] = MTX^R5P cells vs parental cells

CN(Cc1cnc2nc(N)nc(N)c2n1)c1ccc(C(=O)N[C@@H](CCC(=O)O)C(=O)O)cc1 [MTX, methotrexate]
IC50 (CCRF-CEM WT cells; [2]): 25.7 ± 2.1 nM | IC50 (CEM-MTX^R5P cells; [3]): 23.1 ± 2 nM | IC50 (CEM-MTX^R10 cells; [4]): 28.2 ± 2.9 nM | MTX Influx (RFC (SLC19A1); CCRF-CEM WT (parental reference)): 100% | MTX Influx (RFC (SLC19A1); CEM-MTX^R5P, relative to parental cells): 50 ± 5% | MTX Influx (RFC (SLC19A1); CEM-MTX^R5P, relative to parental cells, listed as [^3H]MTX): 50% | MTX Influx (RFC (SLC19A1); CEM-MTX^R10, relative to parental cells): 91 + 6%

Cc1nc2ccc(CN(C)c3ccc(C(=O)N[C@@H](CCC(=O)O)C(=O)O)s3)cc2c(=O)[nH]1 [ZD1964, raltitrexed]
IC50 (CCRF-CEM WT cells; [2]): 6.06 ± 0.42 nM | IC50 (CEM-MTX^R5P cells; [3]): > 300000 nM | resistance relative to parental CCRF-CEM cells (CEM-MTX^R5P cells; [5]): 50,000 fold | IC50 (CEM-MTX^R10 cells; [4]): 110 ± 9.8 nM | sensitivity after ectopic overexpression of normal FPGS [1]: fully restored parental cell sensitivity

C#CCN(Cc1cc2c(=O)[nH]c(C)nc2cc1C)c1ccc(C(=O)N[C@@H](CCc2nnn[nH]2)C(=O)O)c(F)c1 [ZD9331, plevitrexed]
IC50 (CCRF-CEM WT cells; CCRF-CEM): 28.6 ± 2.3 nM | IC50 (CEM-MTX^R5P cells): 13.9 ± 1.7 nM | increased sensitivity relative to parental cells (CEM-MTX^R5P cells; [5]): 2 fold | IC50 (CEM-MTX^R10 cells): 40.8 ± 4.1 nM
